Source: patent publication US5652105A, “Substrate for detection of mammalian 5-C-DNA methyltransferase” (Health Research, Inc., priority 1995, dated 1997)

Legend:
murine DNA 5-C-MTase [1] = assay: Methylation assay: methyl transfer from [methyl-3H]AdoMet to ODNs by DNA methyltransferase from Friend erythroleukemia cell nuclei; type: biochemical
Method: The phosphoramidite of 5-fluorodeoxycytidine (5FdC) and unmodified 5-methyl deoxycytosine (5MdC) and 5FC-containing ODNs were synthesized and purified as described in Marasco, C. J. et al., J. Org. […] 5MdC phosphoramidite is commercially available. ss ODNs were heated to 90° C. for 10 min and quickly chilled on ice immediately prior to assay. […] For ds ODNs, an equimolar mixture of complementary ODNs was heated to 90° C. for 10 min and slowly cooled to room temperature.
Preparation of Murine DNA 5-C-MTase. The DNA 5-C-MTase used in these studies was the 100,000×g supernatant of a 0.3M NaCl extract of Friend erythroleukemia cell nuclei.
Methylation Assay. Reaction mixtures (50 μl ) in 0.1M imidazole, pH 7.4/20 mM EDTA/0.5 mM dithiothreitol contained 0.5 μg of each ODN indicated, ≈0.6 units of DNA 5-C-MTase (1 unit transfers 1 pmol to A (AS)·A'Mp (M1) per min; see Table 7), and 2.8 μCi (1 Ci=37 GBq) of [methyl-^3 H]AdoMet (AdoMet=S-adenosylmethionine) (8 μM). […] For accuracy, methylation rates <5 pmol/30 min were measured in quadrupled reaction mixtures (200 μl ). After incubation for 30 min at 37° C., ODNs were processed for quantitation of radiolabel as described (20) with 25 μg of salmon sperm DNA added as carrier prior to perchloric acid precipitation.
All assays were performed in duplicate.

[2] = test system: bacterial SssI methyltransferase; assay: DNA methylase substrate activity with bacterial SssI enzyme preparation; type: biochemical
Text: (§1) They are labeled Sense (S), Antisense (AS), Methylated Antisense 1 (M1) and Methylated Antisense 2 (M2). […] This property of M2 provides an approach to accurately monitoring levels of DNA methyltransferase activity in clinically obtained tissue samples that might otherwise be contaminated by bacteria, since bacterial DNA methyltransferase activity would be excluded as a component of this measurement.
RESULTS ARE AVERAGE OF 2 EXPTS. BACTERIAL SSS1 ENZYME PREPARATION. ASSAYE

[3] = test system: bacterial DNA methyltransferases; assay: Methylation by bacterial DNA methyltransferases that require double stranded DNA; type: biochemical
Text: as §1

murine DNA 5-C-MTase [4] = assay: Methylation assay: methyl transfer from [methyl-3H]AdoMet to ODNs by DNA methyltransferase from Friend erythroleukemia cell nuclei; type: biochemical; details: Table 2; enzyme preparation from Friend leukemia cells; 1 μg oligomer; average of 2 expts; background 2691
Friend leukemia cells = assay: Growth of Friend leukemia cells treated with phosphorothioate end capped oligomers; type: cell-based, murine; parameters: dose or concentration left out as unconfirmed; details: concentrations of oligomers
Method: Having established that specific phosphorothioate end capped ODNs retain activity against DNA methyltransferase, their biological effects were examined in intact Friend cells: the biological effects of oligomer A were compared to oligomer B which has no available substrate sites and thus cannot be an inhibitor of DNA methyltransferase, and of oligomer D with oligomer C which has no FC.
A test was conducted to determine if these oligomers affect growth or differentiation of Friend leukemia cells. If growth effects are due to the toxicity of FC released from oligomers, then oligomer A and oligomer B should have equivalent effects and oligomer C should have no effect on growth.
Oligomer C may have a minor effect if it competes with endogenous DNA for DNA methyltransferase binding in a reversible manner. If, however, growth effects are due to a generalized effect of high oligomer concentration, then all oligomers, A, B and C, should affect growth similarly.

[5] = target: T1, DNA 5-C-methyltransferase (murine, Friend erythroleukemia cells) (Mus musculus, UniProt P13864 P13864:1-1620); assay: inhibition; methylation rate; 3 in Table 6; potent inhibitor; details: protein: extract; tags: 0.3 M NaCl nuclear extract, 100,000 x g supernatant; single approx. 190 kDa species forming covalent complexes
T1 sequence (P13864 whole entry, one chain of several): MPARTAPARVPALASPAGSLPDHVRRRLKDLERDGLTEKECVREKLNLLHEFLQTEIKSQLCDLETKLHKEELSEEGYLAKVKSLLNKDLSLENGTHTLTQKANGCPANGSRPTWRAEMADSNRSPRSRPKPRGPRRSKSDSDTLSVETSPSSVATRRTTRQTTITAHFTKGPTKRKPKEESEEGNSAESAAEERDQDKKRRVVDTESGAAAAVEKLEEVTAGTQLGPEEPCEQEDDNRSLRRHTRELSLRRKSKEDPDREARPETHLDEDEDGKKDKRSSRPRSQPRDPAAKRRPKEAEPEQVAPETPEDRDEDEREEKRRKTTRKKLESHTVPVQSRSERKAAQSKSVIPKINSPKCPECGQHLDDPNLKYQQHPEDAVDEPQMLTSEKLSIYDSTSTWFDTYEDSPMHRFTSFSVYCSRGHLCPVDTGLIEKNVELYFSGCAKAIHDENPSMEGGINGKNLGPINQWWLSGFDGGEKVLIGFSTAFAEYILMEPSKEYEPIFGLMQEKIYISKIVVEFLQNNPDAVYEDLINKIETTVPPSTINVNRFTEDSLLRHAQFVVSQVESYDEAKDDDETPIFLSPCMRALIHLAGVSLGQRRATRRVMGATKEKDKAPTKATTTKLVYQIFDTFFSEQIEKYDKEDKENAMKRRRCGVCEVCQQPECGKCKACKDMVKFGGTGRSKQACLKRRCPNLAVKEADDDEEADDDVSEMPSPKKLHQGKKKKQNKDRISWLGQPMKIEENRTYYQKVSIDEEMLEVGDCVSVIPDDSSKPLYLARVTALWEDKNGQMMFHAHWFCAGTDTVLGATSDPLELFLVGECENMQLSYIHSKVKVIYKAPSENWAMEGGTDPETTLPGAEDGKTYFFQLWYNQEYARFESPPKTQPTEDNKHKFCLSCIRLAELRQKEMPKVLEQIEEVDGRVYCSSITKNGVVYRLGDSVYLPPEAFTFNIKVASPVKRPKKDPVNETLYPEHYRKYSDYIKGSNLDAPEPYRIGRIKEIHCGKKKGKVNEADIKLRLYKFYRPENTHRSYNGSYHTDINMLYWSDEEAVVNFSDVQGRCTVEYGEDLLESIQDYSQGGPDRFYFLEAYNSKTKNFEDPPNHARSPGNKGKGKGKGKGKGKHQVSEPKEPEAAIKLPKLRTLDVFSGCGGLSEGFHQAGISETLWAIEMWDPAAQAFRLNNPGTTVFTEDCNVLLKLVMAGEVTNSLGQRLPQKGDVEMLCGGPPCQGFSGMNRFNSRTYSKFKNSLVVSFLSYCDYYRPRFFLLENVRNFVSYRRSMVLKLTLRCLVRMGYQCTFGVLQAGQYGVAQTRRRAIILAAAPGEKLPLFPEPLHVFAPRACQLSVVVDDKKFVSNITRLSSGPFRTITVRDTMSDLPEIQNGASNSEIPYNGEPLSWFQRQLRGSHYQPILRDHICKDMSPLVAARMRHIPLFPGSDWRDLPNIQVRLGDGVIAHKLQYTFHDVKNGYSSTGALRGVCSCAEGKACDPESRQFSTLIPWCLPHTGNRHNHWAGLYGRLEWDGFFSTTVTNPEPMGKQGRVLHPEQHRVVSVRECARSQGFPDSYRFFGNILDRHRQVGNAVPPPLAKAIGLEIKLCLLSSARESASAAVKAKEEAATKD

[6] = target: T1, DNA 5-C-methyltransferase (murine, …); assay: methylation rate; 128 in Table 10; details: protein: extract; tags: 0.3 M NaCl nuclear extract, 100,000 x g supernatant; single approx. 190 kDa species forming covalent complexes
Method: (§2) Methylation Assay. Reaction mixtures (50 µl) in 0.1M imidazole, pH 7.4/20 mM EDTA/0.5 mM dithiothreitol contained 0.5 µg of each ODN indicated, ≈0.6 units of DNA 5-C-MTase (1 unit transfers 1 pmol to A (AS)·A'M_p (M1) per min; see Table 7), and 2.8 µCi (1 Ci=37 GBq) of [methyl-^3H]AdoMet (AdoMet=S-adenosylmethionine) (8 µM). Substrate C sites are in excess in the reaction, and methyl transfer is linear for >45 min. For accuracy, methylation rates <5 pmol/30 min were measured in quadrupled reaction mixtures (200 µl). After incubation for 30 min at 37° C., ODNs were processed for quantitation of radiolabel as described (20) with 25 µg of salmon sperm DNA added as carrier prior to perchloric acid precipitation.

[7] = target: T1, DNA 5-C-methyltransferase (murine, …); assay: methylation rate; 150 in Table 10; details: protein: extract; tags: 0.3 M NaCl nuclear extract, 100,000 x g supernatant; single approx. 190 kDa species forming covalent complexes
Method: as §2

[8] = target: T1, DNA 5-C-methyltransferase (murine, …); assay: methylation rate; details: protein: extract; tags: 0.3 M NaCl nuclear extract, 100,000 x g supernatant; single approx. 190 kDa species forming covalent complexes; potential stem-loop
[9] = target: T1, DNA 5-C-methyltransferase (murine, …); assay: methylation rate; 170 in Table 6, 130 in Table 10; details: protein: extract; tags: 0.3 M NaCl nuclear extract, 100,000 x g supernatant; single approx. 190 kDa species forming covalent complexes
[10] = target: T2, Hha I DNA methyltransferase (UniProt P05102 P05102:1-327); assay: ss ODNs not substrates at 37 C
T2 sequence: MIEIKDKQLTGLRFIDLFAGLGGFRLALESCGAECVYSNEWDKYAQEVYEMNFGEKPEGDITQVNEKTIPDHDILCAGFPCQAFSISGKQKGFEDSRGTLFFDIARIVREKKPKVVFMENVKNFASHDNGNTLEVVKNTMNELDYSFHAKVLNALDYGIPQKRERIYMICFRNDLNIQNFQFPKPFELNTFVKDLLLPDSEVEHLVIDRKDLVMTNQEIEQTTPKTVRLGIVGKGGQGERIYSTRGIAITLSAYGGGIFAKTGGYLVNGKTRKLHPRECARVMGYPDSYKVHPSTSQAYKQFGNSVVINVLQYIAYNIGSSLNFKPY

## 5' ATTGCGNATTNCGGATNCGCGATC 3' (5-methylcytosine at 7, 11, 17, further chemistry not given here) [M2, AS with 5-methylcytosine (N) at 7, 11, 17 (non-CpG sites)]
Murine DNA 5-C-MTase [1]
  substrate activity for mammalian DNA methyltransferase (in words): exceptional substrate activity
Murine DNA 5-C-MTase [1]; Table 4, single and double stranded constructs, average of 2 expts, background 1813
  DNA METHYLASE (FL) SUBSTRATE ACTIVITY, ACTIVITY (CPM): 157027 CPM
Murine DNA 5-C-MTase [1]; Table 9, ss ODNs with 5MeC substituted for C at the sites given
  RATE (rate of methylation relative to A): 130
Murine DNA 5-C-MTase [1]; Table 10, ss ODNs with 5 mC and 5 FC substitutions
  RATE (rate of methylation relative to A): 128
[2]
  substrate activity for bacterial SssI methyltransferase (in words): only moderate activity as a substrate
[2]; Table 3, bacterial SssI enzyme preparation, 0.25 μg oligomer, average of 2 expts, background 1351
  DNA METHYLASE SUBSTRATE ACTIVITY, ACTIVITY (CPM): 51047 CPM
[3]
  methylation by most bacterial DNA methyltransferases (in words): not methylated
Murine DNA 5-C-MTase [4]
  DNA METHYLASE SUBSTRATE ACTIVITY, ACTIVITY (CPM): 882284 CPM

## ATTGCGNATTCCGGATCCGCGATC (phosphorothioate end caps, 5-methylcytosine 7, further chemistry not given here) [Oligomer C, phosphorothioate end capped ASM7]
Friend leukemia cells
  inhibition of growth of Friend leukemia cells (in words): no appreciable effect

## ATTGCGNATTCCGGATCNGCGATC (phosphorothioate end caps, 5-MeC 7, 5-FC 18, further chemistry not given here) [Oligomer A, phosphorothioate end capped ASM7F18]
Murine DNA 5-C-MTase [1]; oligomer A compared with capped ASM7, cell free enzyme assay
  inhibition of methylation by incorporation of FC in position 18: 97%
Friend leukemia cells
  inhibition of growth of Friend leukemia cells (in words): more potent that B

## ATTGCGCATTCCGGATCCGCGATC (ssDNA, 5mC at 7; 5-fluoro-C at 18 [5mC at 7; 5-fluoro-C at 18]) [ASM7 F18]
[5]
  binding signal: 3.2 relative to A

## ATTGCGCATTCCGGATCCGCGATC (ssDNA, 5mC at 7,11,17 [5mC at 7,11,17]) [M2 (AMx)]
[6]
  binding signal: 130 relative to A

## ATTGCGCATTCCGGATCCGCGATC (ssDNA, 5mC at 5) [ASM5]
[7]
  binding signal: 175 relative to A

## ATGACGCACCTCGTTGACGCGCTA (ssDNA, 5mC at 7) [structure 6 ODN]
[8]
  binding signal: > 300 relative to A

## ATTGCGCATTCCGGATCCGCGATC (ssDNA, 5mC at 7 [5mC at 7]) [ASM7]
[9]
  binding signal: 140 relative to A

## GATCGCGGATCCGGAATGCGCAAT (ssDNA) [S (A')]
[10]
  binding result: no binding
